Source: patent US11261193B2, “Morphic forms of G1T38 and methods of manufacture thereof” (G1 Therapeutics, Inc., priority 2017, dated 2022)
Converted amounts (≈) assume the structure as drawn. “Also recorded” adds a separate entry of the source. Where two headings read alike, the source gives them in different places. One block for each compound: values may come before it.

Tests used:
[1] = Dynamic vapor sorption (moisture sorption) experiment; format: physicochemical; details: for XRPD (post DVS): form by XRPD after moisture sorption, sample dried at 60° C. and 0% RH; for % wt change at 60% RH: moisture adsorbed at 60% RH; for % wt change at 90% RH: moisture adsorbed at 90% RH
[2] = Stability study under thermal stress (oven at 60° C. for 7 days); format: physicochemical; details: for XRPD pattern / stability after thermal stress: 60° C. for 7 days
Procedure: Forms A, B, and D were stored in an oven maintained at 60° C. for 7 days.

[3] = Twelve-month stability study at 25° C./60% RH; format: physicochemical; details: for Appearance / HPLC Purity / Moisture (%) / XRPD: 25° C./60% RH
Procedure: (§1) Form B was stored at 25° C./60% RH for twelve months and at 40° C./75% RH for six months.

[4] = Six-month stability study at 40° C./75% RH; format: physicochemical
Procedure: as §1

[5] = TG-IR experiment monitoring potential release of hydrogen chloride; format: physicochemical; details: heated at 20° C./minute to approximately 140° C.; listed as pure Form B
Procedure: Thermogravimetric infrared (TG-IR) analysis was performed on a TA Instruments Q5000 IR thermogravimetric (TG) analyzer interfaced to a Magna-IR 560® Fourier transform infrared (FT-IR) spectrophotometer (Thermo Nicolet) equipped with an Ever-Glo mid/far IR source, a potassium bromide (KBr) beamsplitter, and a mercury cadmium telluride (MCT-A) detector. The FT-IR wavelength verification was performed using polystyrene, and the TG calibration standards were nickel and Alumel™. The sample was placed in a platinum sample pan and the pan was inserted into the TG furnace. The TG instrument was started first, immediately followed by the FT-IR instrument. The TG instrument was operated under a flow of helium at 90 and 10 cc/minute for the purge and balance, respectively. The furnace was heated under helium at a rate of 20° C./minute to a final temperature of approximately 140° C. IR spectra were collected approximately every 32 seconds for approximately 7.5 minutes. Each IR spectrum represents 32 co-added scans collected at a spectral resolution of 4 cm-1. Volatiles were identified from a search of the High Resolution Nicolet Vapor Phase spectral library. […]

[6] = Phase 1a toxicity trial in 75 women; format: in vivo, human
[7] = tested on: CDK4/6-dependent tumorigenic cell lines including breast, melanoma, leukemia, and lymphoma cells; details: variety of CDK4/6-dependent tumorigenic cell lines; cited from earlier work
RB phosphorylation = details: in vitro and in vivo; cited from earlier work
[8] = Solubility estimate by aliquot addition with visual observation; format: physicochemical; details: thermodynamic from solid
Procedure: Solubility estimates of impure Form B were attempted in various predominantly HCl acidic aqueous acetone solvent mixtures using an aliquot addition method that involved visual observation. Aliquots of various solvents or diluent/organic solvent mixtures were added to measured amounts of impure Form B with agitation (typically sonication) at ambient temperature until complete dissolution was achieved, as judged by visual observation. Solubilities were calculated based on the total solvent used to give a solution; actual solubilities may be greater because of the volume of solvent portions utilized or a slow rate of dissolution. […] If dissolution occurred at the first aliquot, the value was reported as “>”. Due to the haziness of the obtained samples, effective solubility estimates were difficult to discern.

SMILES: CC(C)N1CCN(c2ccc(Nc3ncc4cc5n(c4n3)C3(CCCCC3)CNC5=O)nc2)CC1 [Form A]
- stability in the moisture sorption experiment [1]: unstable; also recorded: not stable
- XRPD (post DVS) [1]: Form K
- % wt change at 60% RH [1]: 14.9 wt %
- % wt change at 90% RH [1]: 15.8 wt %
- XRPD pattern / stability after thermal stress [2]: A new pattern; also recorded: converted to a new Form
- XRPD after equilibrium at room temperature ([2]; three further days at room temperature after 60° C. for 7 days): converted back to Form A; also recorded: changed back to Form A

SMILES: CC(C)N1CCN(c2ccc(Nc3ncc4cc5n(c4n3)C3(CCCCC3)CNC5=O)nc2)CC1 [Form B]
- stability in the moisture sorption experiment [1]: stable
- XRPD (post DVS) [1]: remained in Form B; also recorded: remained unchanged as Form B
- % wt change at 60% RH [1]: 5.8 wt %
- % wt change at 90% RH [1]: 5.9 wt %
- XRPD pattern / stability after thermal stress [2]: stable; also recorded: No change; also recorded: remained unchanged
- time stable in long-term stability study ([3]; 25° C. and 60% relative humidity): at least 1 year
- Appearance ([3]; 0 M): Yellow
- HPLC Purity ([3]; 0 M): 99.5%
- Moisture (%) ([3]; 0 M): 4.9%
- XRPD ([3]; 0 M): Form B
- Appearance ([3]; 3 M): Yellow solid
- HPLC Purity ([3]; 3 M): 99.5%
- Moisture (%) ([3]; 3 M): 4.07%
- Appearance ([3]; 6 M): Yellow
- HPLC Purity ([3]; 6 M): 99.5%
- Moisture (%) ([3]; 6 M): 7.53%
- Appearance ([3]; 9 M): Yellow solid
- HPLC Purity ([3]; 9 M): 99.6%
- Moisture (%) ([3]; 9 M): 7.29%
- Appearance ([3]; 12 M): Yellow
- HPLC Purity ([3]; 12 M): 99.5%
- Moisture (%) ([3]; 12 M): 7.48%
- XRPD ([3]; 12 M): conformed to the reference spectrum; also recorded: Form B
- Appearance ([4]; 0 M): Yellow solid
- HPLC Purity ([4]; 0 M): 99.5%
- Moisture (%) ([4]; 0 M): 4.9%
- XRPD ([4]; 0 M): Form B
- Appearance ([4]; 1 M): Yellow solid
- HPLC Purity ([4]; 1 M): 99.5%
- Moisture (%) ([4]; 1 M): 2.75%
- Appearance ([4]; 3 M): Yellow solid
- HPLC Purity ([4]; 3 M): 99.5%
- Moisture (%) ([4]; 3 M): 7.47%
- XRPD ([4]; 3 M): Form B
- Appearance ([4]; 6 M): Yellow solid
- HPLC Purity ([4]; 6 M): 99.5%
- Moisture (%) ([4]; 6 M): 7.53%
- XRPD ([4]; 6 M): conformed to the reference spectrum; also recorded: Form B
- volatiles released during TG-IR [5]: only water, and no hydrogen chloride, was released

SMILES: CC(C)N1CCN(c2ccc(Nc3ncc4cc5n(c4n3)C3(CCCCC3)CNC5=O)nc2)CC1 [Form G1T38, 2′-((5-(4-isopropylpiperazin-1-yl)pyridin-2-yl)amino)-7′,8′-dihydro-6′H-spiro[cyclohexane-1,9′-pyrazino[1′,2′:1,5]pyrrolo[2,3-d]pyrimidin]-6′-one]
- tolerability [6]: well tolerated with no significant adverse events
- inhibition of cell proliferation [7]: induces inhibition of cell proliferation
- inhibition of RB phosphorylation (RB phosphorylation): inhibits RB phosphorylation

Other lines, results leading:

- XRPD pattern / stability after thermal stress [2]: remained unchanged
SMILES: CC(C)N1CCN(c2ccc(Nc3ncc4cc5n(c4n3)C3(CCCCC3)CNC5=O)nc2)CC1 [Form C]

- stability in the moisture sorption experiment [1]: unstable; also recorded: not stable
- XRPD (post DVS) [1]: Form K
- % wt change at 60% RH [1]: 4.4 wt %
- XRPD pattern / stability after thermal stress [2]: No change
SMILES: CC(C)N1CCN(c2ccc(Nc3ncc4cc5n(c4n3)C3(CCCCC3)CNC5=O)nc2)CC1 [Form D]

- solubility ([8]; aqueous buffer, 2.0M HCl, ambient, read-out: Solubility): 4000 µg/mL (≈ 8.43 mM)
- solubility ([8]; aqueous buffer, 5.0M HCl, ambient, read-out: Solubility): 3000 µg/mL (≈ 6.32 mM)
- solubility ([8]; aqueous buffer, 5.0M HCl:water 1:2, ambient, read-out: Solubility): 7000 µg/mL (≈ 14.7 mM)
- solubility ([8]; aqueous with cosolvent or surfactant or cyclodextrin, 1M HCl:acetone 50:50, ambient, read-out: Solubility): 4000 µg/mL (≈ 8.43 mM)
- solubility ([8]; aqueous with cosolvent or surfactant or cyclodextrin, 1M HCl:acetone 60:40, ambient, read-out: Solubility): 4000 µg/mL (≈ 8.43 mM)
- solubility ([8]; aqueous with cosolvent or surfactant or cyclodextrin, 1M HCl:acetone 67:33, ambient, read-out: Solubility): 6000 µg/mL (≈ 12.6 mM)
- solubility ([8]; aqueous with cosolvent or surfactant or cyclodextrin, 1.0M HCl:acetone 75:25, ambient, read-out: Solubility): 7000 µg/mL (≈ 14.7 mM)
- solubility ([8]; aqueous with cosolvent or surfactant or cyclodextrin, predominantly HCl acidic aqueous acetone solvent mixtures, ambient temperature, read-out: solubility in the tested solvent mixtures): 3000 to 7000 µg/mL (≈ 6.32 to 14.7 mM)
- solubility ([8]; organic solvent or mixture, 0.1M HCl:acetone 20:80, ambient, read-out: Solubility): < 1000 µg/mL
- solubility ([8]; organic solvent or mixture, 0.5M HCl:acetone 10:90, ambient, read-out: Solubility): < 1000 µg/mL
- solubility ([8]; organic solvent or mixture, 0.5M HCl:acetone 20:80, ambient, read-out: Solubility): < 1000 µg/mL
- solubility ([8]; organic solvent or mixture, 1M HCl:acetone 5:95, ambient, read-out: Solubility): < 1000 µg/mL
- solubility ([8]; organic solvent or mixture, 1M HCl:acetone 10:90, ambient, read-out: Solubility): < 1000 µg/mL
- solubility ([8]; organic solvent or mixture, 1M HCl:acetone 20:80, ambient, read-out: Solubility): < 1000 µg/mL
- solubility ([8]; organic solvent or mixture, 1M HCl:acetone 33:67, ambient, read-out: Solubility): 2000 µg/mL (≈ 4.21 mM)
- solubility ([8]; organic solvent or mixture, Water:acetone 1:2, ambient, read-out: Solubility): 3000 µg/mL (≈ 6.32 mM)
- solubility ([8]; Water, ambient, read-out: Solubility): < 7000 µg/mL
- solubility ([8]; water:acetone 3:1, aqueous with cosolvent or surfactant or cyclodextrin, Water:cetone 3:1, ambient, read-out: Solubility): < 3000 µg/mL
SMILES: CC(C)N1CCN(c2ccc(Nc3ncc4cc5n(c4n3)C3(CCCCC3)CNC5=O)nc2)CC1 [Impure Form B]
